Where “and” joins values, the source holds several entries; their conditions need not be identical. Equal entries are not always repeated.
Assays:
EaPycC = molecular target: T1, EaPycC (Elizabethkingia anophelis, UniProt A0AAT8XUA8); test: LC-MS/MS; format: biochemical; conditions: 0.5 mM CTP, 1 μM enzyme, 25 °C overnight
T1 construct: full-length, thioredoxin-His tag cut by TEV, extra N-terminal Gly, E. coli BL21(DE3); homodimer
T1 sequence (A0AAT8XUA8 2-342): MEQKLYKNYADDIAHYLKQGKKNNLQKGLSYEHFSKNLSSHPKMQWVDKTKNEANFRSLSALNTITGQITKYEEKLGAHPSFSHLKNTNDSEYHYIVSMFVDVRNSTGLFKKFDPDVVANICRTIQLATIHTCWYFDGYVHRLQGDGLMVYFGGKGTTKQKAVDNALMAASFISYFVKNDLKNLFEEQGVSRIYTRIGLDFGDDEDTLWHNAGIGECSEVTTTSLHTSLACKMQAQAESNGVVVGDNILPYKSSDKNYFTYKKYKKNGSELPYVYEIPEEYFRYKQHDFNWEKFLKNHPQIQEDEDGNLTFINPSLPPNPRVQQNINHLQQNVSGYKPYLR

PsPycTIRCNBD = molecular target: T2, PsPycTIRCNBD (Pseudovibrio sp. W64, UniProt A0ACD6BAZ5); test: isothermal titration calorimetry; format: binding
T2 construct: dimer with cUMP
T2 sequence (A0ACD6BAZ5 entry or part of it): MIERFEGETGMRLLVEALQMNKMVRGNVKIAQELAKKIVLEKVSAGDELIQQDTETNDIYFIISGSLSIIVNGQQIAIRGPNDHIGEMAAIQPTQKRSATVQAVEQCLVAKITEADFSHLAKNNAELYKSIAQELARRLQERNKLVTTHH
Excerpt: isothermal titration calorimetry on PsPycTIRCNBD

AnPycC = molecular target: T3, AnPycC (Anabaena sp. CA = ATCC 33047, UniProt A0ACD6BAV8); test: LC-MS/MS; format: biochemical; conditions: 0.5 mM UTP, 1 μM enzyme, pH 9.0, 25 °C overnight
T3 construct: full-length, thioredoxin-His tag cut by TEV, extra N-terminal Gly, E. coli BL21(DE3); monomer in solution, dimer in crystal
T3 sequence (A0ACD6BAV8 1-280): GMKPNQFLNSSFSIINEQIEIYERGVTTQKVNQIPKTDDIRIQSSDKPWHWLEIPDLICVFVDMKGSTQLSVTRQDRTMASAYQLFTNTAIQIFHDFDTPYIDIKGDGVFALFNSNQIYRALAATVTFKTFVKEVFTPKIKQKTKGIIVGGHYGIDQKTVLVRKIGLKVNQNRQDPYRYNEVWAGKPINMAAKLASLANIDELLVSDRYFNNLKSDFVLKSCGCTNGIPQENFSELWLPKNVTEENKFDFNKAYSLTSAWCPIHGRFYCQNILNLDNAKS

[1] = molecular target: SmPycTIRCNBD (Stenotrophomonas maltophilia); test: isothermal titration calorimetry; format: binding
Excerpt: isothermal titration calorimetry on SmPycTIRCNBD

AhPycTIRCNBD = molecular target: T4, AhPycTIRCNBD (Acinetobacter haemolyticus, UniProt N9FD06); test: isothermal titration calorimetry; format: binding
T4 construct: gene F927_00926
T4 sequence (N9FD06 entry or part of it): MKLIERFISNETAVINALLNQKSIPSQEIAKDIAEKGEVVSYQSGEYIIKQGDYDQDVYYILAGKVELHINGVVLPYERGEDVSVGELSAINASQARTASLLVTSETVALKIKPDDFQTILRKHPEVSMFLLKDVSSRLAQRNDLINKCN
Excerpt: isothermal titration calorimetry on AhPycTIRCNBD

NpPycTIRCNBD = NpPycTIRCNBD (Novosphingobium pentaromativorans, UniProt A0AAT8XUA9); test: isothermal titration calorimetry; format: binding
Sequence of NpPycTIRCNBD (A0AAT8XUA9 entry or part of it): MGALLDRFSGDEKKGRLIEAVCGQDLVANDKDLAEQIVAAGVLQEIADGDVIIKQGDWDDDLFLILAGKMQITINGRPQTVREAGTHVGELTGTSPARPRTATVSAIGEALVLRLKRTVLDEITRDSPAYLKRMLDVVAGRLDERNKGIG
Excerpt: isothermal titration calorimetry on NpPycTIRCNBD

[2] = molecular target: cUMP-bound PycTIR (gel-filtration data); test: SEC; gel filtration of cUMP-bound PycTIR (Supplementary Fig. 10)

Nc1ccn([C@@H]2O[C@@H]3COP(=O)(O)O[C@H]3[C@H]2O)c(=O)n1 [cCMP]
LC-MS/MS (EaPycC): an elution peak corresponding to the cCMP product was detected

O=c1ccn([C@@H]2O[C@@H]3COP(=O)(O)O[C@H]3[C@H]2O)c(=O)[nH]1 [cUMP]
Kd (PsPycTIRCNBD): 1 nM | LC-MS/MS (AnPycC): The production of cUMP by purified AnPycC proteins was confirmed by LC-MS/MS | Kd [1]: 270 nM | Kd (AhPycTIRCNBD): 820 nM | Kd (NpPycTIRCNBD): 1 nM

cUMP-bound PycTIR (gel-filtration data)
stoichiometry N [2]: 2 and 4
